The values that follow come from patent US10898536B2, “Method of inhibiting propionibacterium acnes” (Sami Labs Limited, priority 2016, dated 2021).

Series [1] relates to Propionibacterium acnes (ATCC 11827). Nature of the series: Minimum inhibitory concentration by broth micro dilution method. The series is classed as cell-based. The conditions noted are these: Cutibacterium acnes, ATCC11827, P. acnes, 37° C., 48 h, anaerobic. The protocol: In vitro anti-acne activity of isolated compounds 1 and 2 from the stem bark extract of Artocarpus hirsutus were evaluated against acne causing bacterium, Propionibacterium acnes. The antibacterial activity was determined by agar well diffusion method. The minimum inhibitory concentration (MIC) of the compounds were then ascertained by broth micro dilution method. Microorganisms: Acne causing bacterium Propionibacterium acnes (ATCC 11827) was procured from American type culture collection Rockville, USA. Media: Reinforced Clostridial Agar (Hi Media; […]) and Reinforced Clostridial broth (Hi Media; […]) were used in the experiments. The minimum inhibitory concentrations (MIC) of the isolated compounds against P. acnes were determined by broth micro dilution method. Two-fold dilutions of the isolated compounds were prepared in Reinforced Clostridial broth (RCB) to obtain concentrations in the range of 0.1-2000 μg/mL. The diluted samples were loaded in 96-well micro titre plates. The samples were inoculated with the test culture of P. acnes so that the final concentration of the bacteria in each well is 1×10^5 CFU (CLSI, M11-A8; Vol. 32 No. 5). The plates were incubated under anaerobic conditions at 37° C. for 48 h and thereafter observed for inhibition of bacterial growth. The minimum concentration required for inhibiting the growth of P. acnes was considered as minimum inhibitory concentration (MIC).

The test system is the same in series [2]. Nature of the series: Antibacterial activity by agar well diffusion method (zone of inhibition). The series is classed as cell-based. The conditions noted are these: P. acnes, 48 h anaerobic, inhibition detected in all tested concentrations (10-1.25 μg/mL). The protocol: In vitro anti-acne activity of isolated compounds 1 and 2 from the stem bark extract of Artocarpus hirsutus were evaluated against acne causing bacterium, Propionibacterium acnes. The antibacterial activity was determined by agar well diffusion method. The minimum inhibitory concentration (MIC) of the compounds were then ascertained by broth micro dilution method.
Microorganisms: Acne causing bacterium Propionibacterium acnes (ATCC 11827) was procured from American type culture collection Rockville, USA.
Media: Reinforced Clostridial Agar (Hi Media; M154) and Reinforced Clostridial broth (Hi Media; M443) were used in the experiments.
The antibacterial activities of isolated compounds were performed by agar well diffusion method. The samples were dissolved in DMSO to obtain a concentration in the range of 0.5-100 mg/mL. Propionibacterium acnes was cultured on Reinforced Clostridial Agar (RCA) M154 procured from Hi Media and incubated at 37° C. for 48 h in an anaerobic chamber providing gas mixture containing 80% nitrogen, 10% carbon dioxide and 10% hydrogen. The bacterial culture was suspended in sterile normal saline and adjusted to 1.0×10^8 CFU/mL (CLSI, M02-A11; Vol. 32 No. 1). The sterile RCA was seeded with the standardized culture of P. acnes and poured into plates. […] The diameter of zone of inhibition around the wells were measured and recorded.

The nature of series [3]: Solubility in solvents (observed when recording NMR). The series is classed as physicochemical. The settings on record: most of the solvents except DMSO. An excerpt:
In ^1H NMR spectrum, the phenolic OH (5-OH) adjacent to the carbonyl was assigned from the downfield signal at δ 13.36 ppm (70%) and 13.33 ppm (30%) and these two signals appeared due to the presence of the two conformers α and β in about 70:30 ratio. The assignment of two doublets at δ 7.15 ppm (˜30%) and 6.94 ppm (˜70%) was crucial in ^1H NMR spectrum. Nonetheless the disappearance of these two signals in D2O exchanged ^1H NMR spectrum (FIG. 5) ascertained that these two doublet signals are nothing but appeared due to the presence of the hydroxyl group (14-OH) sustaining powerful coupling with anomeric proton (14-H). Thus the signals at δ 7.15 ppm (d, ˜30%, β-OH, J=7.5 Hz) and at 6.94 ppm (d, ˜70%, α-OH, J=4.2 Hz) were assigned corresponding to the anomeric 14-OH. Similarly, though the anomeric proton (14-H) was expected to appear as a doublet however owing to further coupling with 14-OH, it appeared as two signals one as double doublets at δ 5.32 ppm (dd, ˜70%, 14-α-H, J=4.2 Hz, 2.1 Hz) and another one as triplet at 4.87 ppm (t, ˜30%, 14-β-H, J=7.8 Hz). The coupling interferences in 14-α/β-H due to 14-OH was disappeared in D2O exchanged ^1H NMR spectrum (FIG. 5) and signals were clearly appeared as doublets at δ 5.28 (d, ˜70%, 14-α-H, J=1.2 Hz) and 4.81 ppm (d, ˜30%, 14-β-H, J=8.7 Hz). As expected the signals ratio ˜70:30 were reflected in the ^13C NMR spectrum also. […]

Each structure is given as a SMILES string. ≈ marks a conversion by molar mass, not a printed value.

As for `CC(C)=CCc1c(-c2cc(O)c(O)cc2O)oc2c3c(cc(O)c2c1=O)OC(C)(C)C=C3` [Artonine E], the MIC – broadly, the smallest concentration in the dilution series that meets the test's criterion for growth inhibition – in series [1] was determined as 2 µg/mL (≈ 4.58 µM). Besides, the “zone of inhibition around the wells” value in series [2] is reported as “good inhibition”.

`CCC[C@@H]1C[C@@H](C(=O)N[C@@H]([C@H]2O[C@H](SC)[C@H](O)[C@@H](O)[C@H]2O)[C@H](C)Cl)N(C)C1` [Clindamycin, reference compound] registered an MIC in series [1] of 0.03 µg/mL (≈ 0.0706 µM).

`CC1C(O)Oc2c(O)cc(O)c3c2C1Cc1c-3oc2c3c(cc(O)c2c1=O)OC(C)(C)C=C3` (stereo not drawn) [pyranocycloartobiloxanthone A (α & β), Pyranocycloartobiloxanthone A] registered an MIC in series [1] of 2 µg/mL (≈ 4.44 µM). Besides, the “zone of inhibition around the wells” value in series [2] is on record as “good inhibition”. The solubility entry in series [3] is “relatively poor”.
